Measured values as given in the NIST ThermoML archive (doi:10.1016/j.jct.2015.07.048).
Numbers after ± are expanded uncertainties.

Assay: xn = mol fraction of the nth substance listed
Details: 100 kPa, Liquid; for viscosity: Cone and plate viscometry; for electrical conductivity: Direct current cell with electrodes; for mass density: Vibrating tube method

CCCn1cc[n+](C)c1.O=S(=O)([N-]S(=O)(=O)C(F)(F)F)C(F)(F)F + O=C1CCCO1
Details	electrical conductivity [S/m]	mass density [kg/m3]	viscosity [mPa·s]
293.15 K, x1 = 0.05	1.04 ± 0.033	1185.12 ± 2.2	–
293.15 K, x1 = 0.0999	–	1229.6 ± 2	–
293.15 K, x1 = 0.1	1.37 ± 0.042	–	3.42 ± 0.08
293.15 K, x1 = 0.15	1.45 ± 0.044	–	4.3 ± 0.1
293.15 K, x1 = 0.1999	1.37 ± 0.041	1295.75 ± 1.9	5.28 ± 0.12
293.15 K, x1 = 0.2912	1.2 ± 0.036	1338.94 ± 1.8	–
293.15 K, x1 = 0.2996	–	–	8.1 ± 0.18
293.15 K, x1 = 0.4005	0.89 ± 0.027	1377.51 ± 1.7	11.48 ± 0.25
293.15 K, x1 = 0.4986	0.707 ± 0.021	1403.93 ± 1.7	15.9 ± 0.34
293.15 K, x1 = 0.6	0.595 ± 0.018	1425.6 ± 1.7	21.71 ± 0.46
293.15 K, x1 = 0.6997	0.498 ± 0.015	1442.85 ± 1.7	28.23 ± 0.59
293.15 K, x1 = 0.7998	0.428 ± 0.013	1457.11 ± 1.6	35.85 ± 0.75
293.15 K, x1 = 0.8818	0.387 ± 0.012	1467.07 ± 1.6	43.07 ± 0.9
293.15 K, x1 = 1	0.355 ± 0.011	1479.32 ± 1.6	54.19 ± 1.1
298.15 K, x1 = 0.05	1.13 ± 0.036	1180.18 ± 2.2	–
298.15 K, x1 = 0.0999	–	1224.68 ± 2	–
298.15 K, x1 = 0.1	1.5 ± 0.046	–	3.16 ± 0.07
298.15 K, x1 = 0.15	1.6 ± 0.048	–	3.94 ± 0.09
298.15 K, x1 = 0.1999	1.52 ± 0.046	1290.81 ± 1.9	4.75 ± 0.11
298.15 K, x1 = 0.2912	1.38 ± 0.041	1333.98 ± 1.8	–
298.15 K, x1 = 0.2996	–	–	7.17 ± 0.16
298.15 K, x1 = 0.4005	1.1 ± 0.033	1372.56 ± 1.7	9.96 ± 0.21
298.15 K, x1 = 0.4986	0.87 ± 0.026	1398.93 ± 1.7	13.62 ± 0.29
298.15 K, x1 = 0.6	0.692 ± 0.021	1420.58 ± 1.7	18.38 ± 0.39
298.15 K, x1 = 0.6997	0.604 ± 0.018	1437.83 ± 1.7	23.68 ± 0.5
298.15 K, x1 = 0.7998	0.526 ± 0.016	1452.07 ± 1.6	29.72 ± 0.62
298.15 K, x1 = 0.8818	0.472 ± 0.014	1462.02 ± 1.6	35.46 ± 0.74
298.15 K, x1 = 1	0.435 ± 0.013	1474.24 ± 1.6	43.94 ± 0.9
303.15 K, x1 = 0.05	1.22 ± 0.039	1175.2 ± 2.2	–
303.15 K, x1 = 0.0999	–	1219.69 ± 2	–
303.15 K, x1 = 0.1	1.63 ± 0.05	–	2.92 ± 0.07
303.15 K, x1 = 0.15	1.75 ± 0.052	–	3.6 ± 0.08
303.15 K, x1 = 0.1999	1.67 ± 0.05	1285.84 ± 1.9	4.3 ± 0.09
303.15 K, x1 = 0.2912	1.56 ± 0.047	1329.01 ± 1.8	–
303.15 K, x1 = 0.2996	–	–	6.31 ± 0.14
303.15 K, x1 = 0.4005	1.22 ± 0.037	1367.63 ± 1.7	8.69 ± 0.19
303.15 K, x1 = 0.4986	1.02 ± 0.031	1394.03 ± 1.7	11.81 ± 0.25
303.15 K, x1 = 0.6	0.796 ± 0.024	1415.71 ± 1.7	15.67 ± 0.33
303.15 K, x1 = 0.6997	0.714 ± 0.021	1432.97 ± 1.7	19.81 ± 0.41
303.15 K, x1 = 0.7998	0.629 ± 0.019	1447.22 ± 1.6	24.68 ± 0.51
303.15 K, x1 = 0.8818	0.564 ± 0.017	1457.17 ± 1.6	28.84 ± 0.6
303.15 K, x1 = 1	0.521 ± 0.016	1469.4 ± 1.6	35.92 ± 0.74
308.15 K, x1 = 0.05	1.31 ± 0.042	1170.18 ± 2.2	–
308.15 K, x1 = 0.0999	–	1214.67 ± 2	–
308.15 K, x1 = 0.1	1.76 ± 0.054	–	2.68 ± 0.06
308.15 K, x1 = 0.15	1.9 ± 0.057	–	3.3 ± 0.07
308.15 K, x1 = 0.1999	1.85 ± 0.056	1280.78 ± 1.9	3.91 ± 0.09
308.15 K, x1 = 0.2912	1.75 ± 0.052	1323.97 ± 1.8	–
308.15 K, x1 = 0.2996	–	–	5.67 ± 0.12
308.15 K, x1 = 0.4005	1.44 ± 0.043	1362.59 ± 1.7	7.71 ± 0.16
308.15 K, x1 = 0.4986	1.27 ± 0.038	1389.01 ± 1.7	10.31 ± 0.22
308.15 K, x1 = 0.6	0.992 ± 0.03	1410.7 ± 1.7	13.51 ± 0.28
308.15 K, x1 = 0.6997	0.827 ± 0.025	1427.98 ± 1.7	17.13 ± 0.36
308.15 K, x1 = 0.7998	0.737 ± 0.022	1442.24 ± 1.6	21 ± 0.44
308.15 K, x1 = 0.8818	0.667 ± 0.02	1452.2 ± 1.6	24.51 ± 0.51
308.15 K, x1 = 1	0.611 ± 0.018	1464.43 ± 1.6	30 ± 0.62
313.15 K, x1 = 0.05	1.42 ± 0.045	1165.15 ± 2.2	–
313.15 K, x1 = 0.0999	–	1209.63 ± 2	–
313.15 K, x1 = 0.1	1.9 ± 0.058	–	2.49 ± 0.06
313.15 K, x1 = 0.15	2.06 ± 0.062	–	3.06 ± 0.07
313.15 K, x1 = 0.1999	2.02 ± 0.061	1275.71 ± 1.9	3.57 ± 0.08
313.15 K, x1 = 0.2912	1.94 ± 0.058	1318.9 ± 1.8	–
313.15 K, x1 = 0.2996	–	–	5.1 ± 0.11
313.15 K, x1 = 0.4005	1.64 ± 0.049	1357.55 ± 1.7	6.92 ± 0.15
313.15 K, x1 = 0.4986	1.44 ± 0.043	1383.98 ± 1.7	9.13 ± 0.19
313.15 K, x1 = 0.6	1.15 ± 0.035	1405.67 ± 1.7	11.92 ± 0.25
313.15 K, x1 = 0.6997	1.03 ± 0.031	1422.96 ± 1.7	14.78 ± 0.31
313.15 K, x1 = 0.7998	0.849 ± 0.026	1437.25 ± 1.6	17.93 ± 0.37
313.15 K, x1 = 0.8818	0.789 ± 0.024	1447.22 ± 1.6	20.73 ± 0.43
313.15 K, x1 = 1	0.71 ± 0.021	1459.44 ± 1.6	25.32 ± 0.52
318.15 K, x1 = 0.05	1.52 ± 0.048	1159.99 ± 2.2	–
318.15 K, x1 = 0.0999	–	1204.53 ± 2	–
318.15 K, x1 = 0.1	2.03 ± 0.062	–	2.3 ± 0.05
318.15 K, x1 = 0.15	2.22 ± 0.067	–	2.8 ± 0.06
318.15 K, x1 = 0.1999	2.24 ± 0.067	1270.69 ± 1.9	3.25 ± 0.07
318.15 K, x1 = 0.2912	2.13 ± 0.064	1313.92 ± 1.8	–
318.15 K, x1 = 0.2996	–	–	4.6 ± 0.1
318.15 K, x1 = 0.4005	1.92 ± 0.058	1352.58 ± 1.7	6.2 ± 0.13
318.15 K, x1 = 0.4986	1.68 ± 0.051	1379.05 ± 1.7	8.06 ± 0.17
318.15 K, x1 = 0.6	1.41 ± 0.042	1400.79 ± 1.7	10.43 ± 0.22
318.15 K, x1 = 0.6997	1.21 ± 0.037	1418.09 ± 1.7	12.8 ± 0.27
318.15 K, x1 = 0.7998	0.997 ± 0.03	1432.4 ± 1.6	15.49 ± 0.32
318.15 K, x1 = 0.8818	0.883 ± 0.027	1442.41 ± 1.6	17.84 ± 0.37
318.15 K, x1 = 1	0.813 ± 0.024	1454.63 ± 1.6	21.58 ± 0.44
323.15 K, x1 = 0.05	1.64 ± 0.052	1154.83 ± 2.2	–
323.15 K, x1 = 0.0999	–	1199.33 ± 2	–
323.15 K, x1 = 0.1	2.17 ± 0.066	–	2.13 ± 0.05
323.15 K, x1 = 0.15	2.38 ± 0.071	–	2.59 ± 0.06
323.15 K, x1 = 0.1999	2.41 ± 0.072	1265.59 ± 1.9	3.01 ± 0.07
323.15 K, x1 = 0.2912	2.33 ± 0.07	1308.85 ± 1.8	–
323.15 K, x1 = 0.2996	–	–	4.21 ± 0.09
323.15 K, x1 = 0.4005	2.1 ± 0.063	1347.55 ± 1.7	5.59 ± 0.12
323.15 K, x1 = 0.4986	1.9 ± 0.057	1374.04 ± 1.7	7.24 ± 0.15
323.15 K, x1 = 0.6	1.64 ± 0.049	1395.82 ± 1.7	9.27 ± 0.19
323.15 K, x1 = 0.6997	1.39 ± 0.042	1413.16 ± 1.7	11.31 ± 0.24
323.15 K, x1 = 0.7998	1.15 ± 0.035	1427.49 ± 1.6	13.71 ± 0.29
323.15 K, x1 = 0.8818	1.03 ± 0.031	1437.5 ± 1.6	15.72 ± 0.33
323.15 K, x1 = 1	0.923 ± 0.028	1449.73 ± 1.6	18.82 ± 0.39
